Reference: paper doi:10.1101/2024.05.07.592940v1 (biorxiv, 2024)
Substitutions are numbered along the chain they refer to.

What was measured:
PTPN2 [1] = target: T1, PTPN2 (Homo sapiens, UniProt P17706, C216G); assay: microscale thermophoresis; format: binding
T1 sequence (P17706 1-314 C216G): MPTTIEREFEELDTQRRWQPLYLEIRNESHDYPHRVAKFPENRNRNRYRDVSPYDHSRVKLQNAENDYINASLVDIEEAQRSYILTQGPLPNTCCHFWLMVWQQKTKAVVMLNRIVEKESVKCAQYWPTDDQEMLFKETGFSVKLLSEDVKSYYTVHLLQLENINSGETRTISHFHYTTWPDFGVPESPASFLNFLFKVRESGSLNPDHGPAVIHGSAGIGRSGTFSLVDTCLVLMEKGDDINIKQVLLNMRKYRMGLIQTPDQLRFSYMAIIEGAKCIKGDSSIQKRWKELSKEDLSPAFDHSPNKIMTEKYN

PTPN2 [2] = target: T2, PTPN2 (Homo sapiens, UniProt P17706); assay: pNPP hydrolysis, absorbance […] nm; format: biochemical
T2 sequence (P17706 1-314): T1 sequence (P17706 1-314 C216G) with G216C

PTP1B = target: T3, PTP1B (Homo sapiens, UniProt P18031); assay: pNPP hydrolysis, absorbance […] nm; format: biochemical
T3 sequence (P18031 1-321): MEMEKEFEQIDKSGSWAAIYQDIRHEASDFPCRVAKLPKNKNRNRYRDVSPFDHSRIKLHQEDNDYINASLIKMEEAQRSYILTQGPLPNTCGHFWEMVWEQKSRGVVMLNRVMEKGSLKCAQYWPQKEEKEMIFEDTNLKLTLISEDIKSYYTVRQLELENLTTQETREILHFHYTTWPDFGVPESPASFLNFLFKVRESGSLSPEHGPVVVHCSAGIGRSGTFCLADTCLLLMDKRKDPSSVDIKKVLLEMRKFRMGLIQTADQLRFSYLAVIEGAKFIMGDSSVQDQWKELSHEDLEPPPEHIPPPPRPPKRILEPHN

PTPN2 [3] = target: T2, PTPN2; assay: microscale thermophoresis; format: binding

O=c1sn(CCOc2ccc([N+](=O)[O-])cc2)c(=O)n1Cc1ccccc1 [K73]
Kd (PTPN2 [1]): 31.6 µM | IC50 (PTPN2 [2]): 0.324 µM | IC50 (PTP1B): 4.27 µM | Kd (PTPN2 [3]): 0.646 µM

O=c1sn(-c2cccc3ccccc23)c(=O)n1Cc1ccccc1 [NP-12]
IC50 (PTPN2 [2]): 3.23 µM | IC50 (PTP1B): 4.66 µM
